Results on one compound are retold here after US8809554B2, “Process for the preparation of sulfamide derivatives” (Janssen Pharmaceutica NV, priority 2011, dated 2014).

Values joined by “and” are separate entries in the source; they are usually repeats but may differ in a detail not shown here. Equal entries are not always repeated.

This series is described as follows: Solubility of the compound of formula (I-S) in toluene as a function of OPPh3 concentration. In kind it is physicochemical. The settings on record: 21° C.

On to `NS(=O)(=O)NC[C@H]1COc2cc(Cl)ccc2O1` [compound of formula (I-S), N-[[(2S)-6-chloro-2,3-dihydro-1,4-benzodioxin-2-yl]methyl]-sulfamide], for which the “Solubility (g/100 g toluene)” value by setting is: (OPPH3 0.05 mol/L) 1.6 g/100 g toluene; (OPPH3 0.10 mol/L) 2.3 g/100 g toluene; (OPPH3 0.15 mol/L) 4.2 g/100 g toluene; (OPPH3 0.20 mol/L) 5.9 g/100 g toluene and 5.0 g/100 g toluene; (OPPH3 0.25 mol/L) 6.0 g/100 g toluene; (OPPH3 0.30 mol/L) 8.2 g/100 g toluene. The “Solubility (g/100 g toluene)” value (OPPH3 0.40 mol/L) is 9.6 g/100 g toluene. Besides, the “Solubility, trend with OPPh3 concentration” value (OPPh3 0.05-0.40 mol/L) was “increases with increased OPPh3 concentration”.
